Laboratory results: paper PMC6019134, “1,2,6-Thiadiazinones as Novel Narrow Spectrum Calcium/Calmodulin-Dependent Protein Kinase Kinase 2 (CaMKK2) Inhibitors” (Molecules : A Journal of Synthetic Chemistry and Natural …, 2018)
Values joined by “and” are separate entries in the source; they are usually repeats but may differ in a detail not shown here. Identical values can stand only once.

What was measured:
[1] = target: T1, CAMKK2 kinase domain (132–470) (Homo sapiens, UniProt Q96RR4); experiment: CaMKK2B TR-FRET tracer displacement assay; type: binding; conditions: for IC50 / FRET (IC50): CaMKK2, displacement of tracer 236, average of 2 experiments; for increase in potency over compound 2: CaMKK2 FRET IC50 relative to compound 2
T1 construct: CAMKK2 kinase domain (132–470) was cloned in a pNIC-Bio2 vector; 10xHis tag followed by a TEV site (N, cleaved yes); made in house; host or cells: E. coli BL21(DE3)-R3-BirA
Excerpt: To more accurately determine the relative changes in potency of the TDZ analogues and to enable measurement of accurate IC50^’s, we developed a Time-Resolved Fluorescence Resonance Energy Transfer (TR-FRET) assay. The TR-FRET tracer displacement assays were generated using a protocol derived from the Lanthascreen binding assays (ThermoFisher Scientific, Waltham, MA, USA) [21].

[2] = Chemical stability of the dianilinothiadiazinone core (TLC); type: physicochemical; conditions: 48 h; neutral, acidic (HCl 2 M) or pH 9 aqueous conditions, BuNH2, PhNH2, PhSH, DDQ, Sn
Experimental: After the synthesis of the desired dianilino-TDZs (1–5), the stability of dianilinothiadiazinone in biological systems was assessed: 3,5-bis(phenylamino)-4H-1,2,6-thiadiazin-4-one (9) was subjected to neutral, acidic or slightly basic aqueous conditions (H2O/DMSO 50:50, THF/HCl 2 M 50:50 or THF/H2O 50:50 at pH 9 with a carbonate buffer), presence of amine or thiol nucleophiles (BuNH2 1 equiv., PhNH2 1 equiv., PhSH 1 equiv.), oxidizing [2,3-dichloro-5,6-dicyano-1,4-benzoquinone (DDQ) 2 equiv.] and reducing conditions (Sn, 2 equiv.).

[3] = target: T2, human CaMKK2 (residues 50–588) (Homo sapiens, UniProt Q96RR4); experiment: CaMKK2 enzyme assay ([γ-32P]-ATP, CaMKKtide peptide); type: biochemical; conditions: for IC50: 50 μM ATP, 7 concentrations, mean of 2 experiments;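 as to all read-outs here: radiometric kinase assay: phosphate transfer from [γ-32P]-ATP to synthetic peptide substrate, 10 min reaction at 30 °C, peptide-bound radioactivity captured on P81 paper and measured by scintillation counting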
T2 construct: recombinant bacterial expressed human CaMKK2 (residues 50–588); made in house
Experimental: CaMKK2 activity was measured by determining the rate of transfer of radiolabeled phosphate from [γ-^32P]-ATP to a synthetic peptide substrate [22].
A standard 30 μL assay, 1 ng of recombinant bacterial expressed human CaMKK2 (residues 50–588) was added to assay buffer (50 mM HEPES [pH 7.4], 1 mM DTT, 0.02% (v/v) Brij-35) containing 200 μM CaMKKtide peptide substrate, 50 μM CaCl2, 1 μM calmodulin (Sigma-Aldrich Corp., St. Louis, MO, USA), 50 μM [γ-^32P]-ATP (Perkin Elmer) and 5 mM MgCl2, in the presence and absence of different concentrations of small-molecule inhibitors. Reactions were incubated for 10 min at 30 °C, after which they were terminated by spotting 15 μL onto P81 phosphocellulose paper (Whatman, GE Healthcare, Chicago, IL, USA) and washing extensively in 1% phosphoric acid. Radioactivity was quantified by scintillation counting.

[4] = test system: arylhydrocarbon receptor (AhR); design: method as in PMID 18755850; conditions: cited from earlier work
[5] = test system: kinases including ERK8, MNK1 and PIM3; design: method as in PMID 17519230, PMID 12540834; conditions: cited from earlier work
[6] = design: method as in PMID 17519230, PMID 12540834; conditions: cited from earlier work

T1 sequence (Q96RR4 132-470): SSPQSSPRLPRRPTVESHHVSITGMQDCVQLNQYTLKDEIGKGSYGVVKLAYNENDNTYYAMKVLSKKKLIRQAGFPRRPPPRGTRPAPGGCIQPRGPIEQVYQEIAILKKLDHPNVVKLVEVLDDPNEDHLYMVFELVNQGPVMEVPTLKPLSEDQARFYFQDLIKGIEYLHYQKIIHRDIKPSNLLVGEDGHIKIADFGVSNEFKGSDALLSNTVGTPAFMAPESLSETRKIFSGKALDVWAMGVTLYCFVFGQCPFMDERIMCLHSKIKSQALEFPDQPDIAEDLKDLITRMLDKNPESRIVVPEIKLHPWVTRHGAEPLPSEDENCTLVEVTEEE

| Compound | IC50 [1] [µM] | Enzyme assay raw data (0 μM drug = 100.00) ([3]; [drug] 0.001 μM) | Enzyme assay raw data (0 μM drug = 100.00) ([3]; [drug] 0.01 μM) | Enzyme assay raw data (0 μM drug = 100.00) ([3]; [drug] 0.1 μM) | Enzyme assay raw data (0 μM drug = 100.00) ([3]; [drug] 1 μM) | Enzyme assay raw data (0 μM drug = 100.00) ([3]; [drug] 10 μM) | Enzyme assay raw data (0 μM drug = 100.00) ([3]; [drug] 100 μM) | melting point | also measured |
| --- | --- | --- | --- | --- | --- | --- | --- | --- | --- |
| 4-({5-[(3-Hydroxy-4-methylphenyl)amino]-4-oxo-4H-1,2,6-thiadiazin-3-yl}(oxazol-4-ylmethyl)amino)-benzamide [Compound 16] | > 50 | – | – | – | – | – | – | – | – |
| O=c1c(Nc2ccccc2)nsnc1Nc1ccccc1 [Compound 9, 3,5-bis(phenylamino)-4H-1,2,6-thiadiazin-4-one] | – | – | – | – | – | – | – | – | stability (by TLC) [2]: stable |
| Cc1ccc(Nc2nsnc(Nc3ccccc3C(N)=O)c2=O)cc1O [Compound 10, 2-({5-[(3-Hydroxy-4-methylphenyl)amino]-4-oxo-4H-1,2,6-thiadiazin-3-yl}amino)benzamide] | 7.8 | 102.30 | 98.48 | 91.02 | 85.36 | 52.53 | 2.19 | – | increase in potency over compound 2 [1]: > 8 fold; IC50 [3]: 11.9 µM |
| Cc1ccc(Nc2nsnc(Nc3ccc(-c4ncc[nH]4)cc3)c2=O)cc1O [Compound 11, 3-{[4-(1H-Imidazol-2-yl)phenyl]amino}-5-[(3-hydroxy-4-methylphenyl)amino]-4H-1,2,6-thiadiazin-4-one] | 3.2 | 98.56 | 93.09 | 84.85 | 79.37 | 42.11 | 1.23 | – | increase in potency over compound 2 [1]: > 15 fold; IC50 [3]: 6.51 µM and 6.5 µM |
| Cc1ccc(Nc2nsnc(Nc3ccc(C(=O)O)cc3)c2=O)cc1O [Compound 12, 4-({5-[(3-Hydroxy-4-methylphenyl)amino]-4-oxo-4H-1,2,6-thiadiazin-3-yl}amino)benzoic acid] | 10.5 | 102.38 | 95.03 | 89.54 | 79.70 | 28.43 | 0.83 | – | increase in potency over compound 2 [1]: > 5 fold; IC50 [3]: 4.09 µM and 4.1 µM |
| Cc1ccc(Nc2nsnc(Nc3ccccc3C#N)c2=O)cc1O [Compound 13, 2-({5-[(3-Hydroxy-4-methylphenyl)amino]-4-oxo-4H-1,2,6-thiadiazin-3-yl}amino)benzonitrile] | 43 | – | – | – | – | – | – | 229 to 230 °C | – |
| Cc1ccc(Nc2nsnc(Nc3cccc(C#N)c3)c2=O)cc1O [Compound 14, 3-({5-[(3-Hydroxy-4-methylphenyl)amino]-4-oxo-4H-1,2,6-thiadiazin-3-yl}amino)benzonitrile] | > 50 | – | – | – | – | – | – | 258 to 259 °C | – |
| Cc1ccc(Nc2nsnc(Nc3ccc(C#N)cc3)c2=O)cc1O [Compound 15, 4-({5-[(3-Hydroxy-4-methylphenyl)amino]-4-oxo-4H-1,2,6-thiadiazin-3-yl}amino)benzonitrile] | > 50 | – | – | – | – | – | – | 280 °C (dec.) | – |
| Cc1ccc(Nc2nsnc(Nc3ccccc3CO)c2=O)cc1O [Compound 17, 3-[(3-Hydroxy-4-methylphenyl)amino]-5-{[2-(hydroxymethyl)phenyl]amino}-4H-1,2,6-thiadiazin-4-one] | > 50 | – | – | – | – | – | – | – | FRET (IC50) [1]: effectively inactive |
| Cc1ccc(Nc2nsnc(Nc3cccc(C(F)(F)F)c3CO)c2=O)cc1O [Compound 18, 3-[(3-Hydroxy-4-methylphenyl)amino]-5-{[2-(hydroxymethyl)-3-(trifluoromethyl)phenyl]amino}-4H-1,2,6-thiadiazin-4-one] | > 50 | – | – | – | – | – | – | – | FRET (IC50) [1]: effectively inactive |
| Cc1ccc(Nc2nsnc(-c3ccc(C(=O)O)c(C4CCCC4)c3)c2=O)cc1O [Compound 19, 2-Cyclopentyl-4-{5-[(3-hydroxy-4-methylphenyl)amino]-4-oxo-4H-1,2,6-thiadiazin-3-yl}-benzoic acid] | 38 | – | – | – | – | – | – | 277 to 278 °C | – |
| O=C(O)c1ccc2c3c1cccc3c(=O)n1c3ccccc3nc21 [STO-609, 7-oxo-7H-benzimidazo[2,1-a]benz[de]isoquinoline-3-carboxylic acid, reference compound] | – | 88.33 | 69.88 | 42.21 | 4.64 | 1.89 | 0.07 | – | activity on arylhydrocarbon receptor (AhR) [4]: agonist; off-target kinome profile [5]: unfavorable off-target kinome profile; solubility [6]: poor solubility |
